Experimental findings from patent publication US20240270751A1, “Pyrazolopyridinone Compounds” (BeiGene Ltd., priority 2021, published 2024) are described below.

For test [1], the target named is DGKζ (Homo sapiens (Human), UniProt Q13574). The experiment in a line: Biochemical DGK IC50 assay, DGKζ ADP-Glo assay. Particulars: 0.5 nM enzyme, 140 μM ATP, 80 μM DAG; read-out: DGKζ ADP-Glo assay IC50. The gist of the method:
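Full-length human DGKζ, His-TEV tagged and purified from baculovirus-infected Sf9 cells, assayed by ADP-Glo with DAG/PS lipid micelle substrate prepared in 25 mM HEPES pH 7.0 with octyl glucoside. Final compound concentrations spanned 1.55–10000 nM or 23.3–150000 nM.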

Test [2] deals with DGKα (Homo sapiens (Human), UniProt P23743). The experiment in a line: Biochemical DGK IC50 assay, DGKα ADP-Glo assay. The settings on record: 7.5 nM enzyme, 140 μM ATP, 80 μM DAG. Put shortly:
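ADP-Glo read-out with full-length DGKα on DAG/PS lipid micelle substrate in 25 mM HEPES pH 7.0, 0.5 mM EDTA, 160 mM octyl β-D-glucopyranoside. Compound final concentrations spanned 1.55˜10000 nM or 23.3˜150000 nM.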
A general note: ADP-Glo turns the ADP formed in a reaction into a luminescent signal.

Chain of DGKζ (Q13574 other isoform, or with tags, fused parts or gaps): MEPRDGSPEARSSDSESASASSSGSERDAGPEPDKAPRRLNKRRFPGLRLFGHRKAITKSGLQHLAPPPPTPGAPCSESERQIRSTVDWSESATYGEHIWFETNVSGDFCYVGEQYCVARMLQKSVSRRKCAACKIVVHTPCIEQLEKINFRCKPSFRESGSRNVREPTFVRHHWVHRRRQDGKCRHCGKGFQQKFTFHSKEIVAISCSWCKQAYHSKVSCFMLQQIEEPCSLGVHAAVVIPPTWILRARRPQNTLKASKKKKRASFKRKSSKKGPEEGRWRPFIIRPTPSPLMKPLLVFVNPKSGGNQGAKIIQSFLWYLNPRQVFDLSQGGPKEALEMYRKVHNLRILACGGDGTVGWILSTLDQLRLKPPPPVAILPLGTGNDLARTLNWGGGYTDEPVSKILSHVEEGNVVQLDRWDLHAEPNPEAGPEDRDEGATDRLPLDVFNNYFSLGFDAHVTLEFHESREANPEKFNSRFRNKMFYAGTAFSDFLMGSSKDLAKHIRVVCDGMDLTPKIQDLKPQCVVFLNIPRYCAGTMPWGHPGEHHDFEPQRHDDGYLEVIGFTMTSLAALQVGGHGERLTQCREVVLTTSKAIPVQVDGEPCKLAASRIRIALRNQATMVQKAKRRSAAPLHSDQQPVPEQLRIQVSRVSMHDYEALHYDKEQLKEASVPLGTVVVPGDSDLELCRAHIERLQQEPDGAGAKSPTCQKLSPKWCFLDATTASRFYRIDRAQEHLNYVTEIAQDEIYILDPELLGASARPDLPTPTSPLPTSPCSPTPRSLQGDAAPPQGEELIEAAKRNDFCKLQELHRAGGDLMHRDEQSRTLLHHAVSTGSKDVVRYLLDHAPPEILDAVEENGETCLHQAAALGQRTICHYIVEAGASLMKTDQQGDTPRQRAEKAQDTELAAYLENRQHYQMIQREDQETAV
Chain of DGKα (P23743 whole entry): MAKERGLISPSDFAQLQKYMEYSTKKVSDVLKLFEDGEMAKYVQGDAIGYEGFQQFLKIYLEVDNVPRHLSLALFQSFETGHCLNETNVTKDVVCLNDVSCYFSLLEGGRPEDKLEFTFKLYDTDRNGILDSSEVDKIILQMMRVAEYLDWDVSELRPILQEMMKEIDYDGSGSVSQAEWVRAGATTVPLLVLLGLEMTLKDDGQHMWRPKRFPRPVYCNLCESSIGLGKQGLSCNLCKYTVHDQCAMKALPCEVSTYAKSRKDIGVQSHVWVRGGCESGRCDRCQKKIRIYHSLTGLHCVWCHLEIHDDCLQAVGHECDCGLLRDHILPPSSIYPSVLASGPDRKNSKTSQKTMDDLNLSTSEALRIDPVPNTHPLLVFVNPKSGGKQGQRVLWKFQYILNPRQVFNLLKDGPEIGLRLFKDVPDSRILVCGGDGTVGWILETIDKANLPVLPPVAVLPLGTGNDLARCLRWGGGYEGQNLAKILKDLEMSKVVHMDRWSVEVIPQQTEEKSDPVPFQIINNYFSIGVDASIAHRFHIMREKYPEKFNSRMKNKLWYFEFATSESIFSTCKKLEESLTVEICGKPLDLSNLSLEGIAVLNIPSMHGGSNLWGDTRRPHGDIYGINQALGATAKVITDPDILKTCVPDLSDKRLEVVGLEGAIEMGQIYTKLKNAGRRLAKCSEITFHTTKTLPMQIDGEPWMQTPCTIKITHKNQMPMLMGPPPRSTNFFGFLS

As to `CC[C@H]1CN(C(C)c2ccc3nccnc3c2)[C@H](C)CN1c1cc(=O)n(C)c2cn(CC#N)nc12` (single isomer, unassigned) [Compound A98b], the results for the IC50 in test [1] and in test [2] were 1.76 µM and more than 10 µM, respectively.

Turning to `CC[C@H]1CN(C(C)c2cnc3c(n2)CCCC3)[C@H](CC)CN1c1cc(=O)n(C)c2cn(CC#N)nc12` (single isomer, unassigned) [Compound A357b], the IC50 turned out to be 0.012 µM in test [1] and 0.646 µM in test [2].

For `[2H]C([2H])([2H])n1c(=O)cc(N2C[C@@H](C)N(C(C)c3ccc(F)cc3C(F)(F)F)C[C@@H]2C)c2nn(CC#N)cc21` (stereo partly drawn) [Compound A257, 2-(7-((2S,5R)-4-(1-(4-fluoro-2-(trifluoromethyl)phenyl)ethyl)-2,5-dimethylpiperazin-1-yl)-4-(methyl-d3)-5-oxo-4,5-dihydro-2H-pyrazolo[4,3-b]pyridin-2-yl)acetonitrile], the IC50 is 0.652 µM in test [1] and more than 10 µM in test [2].

`CC(c1cnc2c(c1)OCCO2)N1C[C@H](C)N(c2cc(=O)n(C)c3cn(CC#N)nc23)C[C@H]1C` (stereo partly shown) [Compound A250]: the results for the IC50 in test [1] and in test [2] were 3.01 µM and more than 10 µM, respectively.

On to `CC(c1ccc2nccnc2c1)N1C[C@H](C(F)F)N(c2cc(=O)n(C)c3cn(CC#N)nc23)C[C@H]1C` (stereo partly drawn) [Compound A261, 2-(7-((2R,5R)-2-(difluoromethyl)-5-methyl-4-(1-(quinoxalin-6-yl)ethyl)piperazin-1-yl)-4-methyl-5-oxo-4,5-dihydro-2H-pyrazolo[4,3-b]pyridin-2-yl)acetonitrile], for which the IC50 in test [1] is 2.35 µM; in test [2], more than 10 µM.

Consider `CC[C@H]1CN(C(C)c2ncccc2COC)[C@H](CC)CN1c1cc(=O)n(C)c2cn(CC#N)nc12` (stereo partly shown) [Compound A93], for which the values for the IC50 in test [1] and in test [2] were 3.66 µM and more than 10 µM, respectively.

`C[C@@H]1CN(c2cc(=O)n(C)c3c(C(F)(F)F)n(CC#N)nc23)[C@@H](C)CN1[C@@H](C)c1ccc2nccnc2c1` (single isomer, unassigned) [Compound A243, 2-(7-((2S,5R)-2,5-dimethyl-4-((S)-1-(quinoxalin-6-yl)ethyl)piperazin-1-yl)-4-methyl-5-oxo-3-(trifluoromethyl)-4,5-dihydro-2H-pyrazolo[4,3-b]pyridin-2-yl)acetonitrile or 2-(7-((2S,5R)-2,5-dimethyl-4-((R)-1-(quinoxalin-6-yl)ethyl)piperazin-1-yl)-4-methyl-5-oxo-3-(trifluoromethyl)-4,5-dihydro-2H-pyrazolo[4,3-b]pyridin-2-yl)acetonitrile]: the IC50 in test [1] was 1.35 µM; in test [2] it was more than 10 µM.

`CC(c1ccc2nccnc2c1)N1C[C@H](C)N(c2cc(=O)n(C)c3cn(S(C)(=O)=O)nc23)C[C@H]1C` (stereo partly shown) [Compound A13]: the IC50 in test [1] amounted to 3.7 µM; in test [2] it was 5.9 µM.

As for `CCC(c1ccc(C2CC2)cc1)N1C[C@H](C)N(c2cc(=O)n(C)c3cn(CC#N)nc23)C[C@H]1C` (stereo partly shown) [Compound A36], the IC50 is 0.97 µM in test [1] and 0.55 µM in test [2].

Take `CC[C@@H]1CN(c2c(C#N)c(=O)n(CC#N)c3cn(CC#N)nc23)[C@@H](C)CN1C(C)c1ccc2nccnc2c1` (stereo partly drawn) [Compound A189, 2,2′-(6-cyano-7-((2S,5R)-5-ethyl-2-methyl-4-(1-(quinoxalin-6-yl)ethyl)piperazin-1-yl)-5-oxo-2H-pyrazolo[4,3-b]pyridine-2,4(5H)-diyl)diacetonitrile]: the values for the IC50 in test [1] and in test [2] were 3.1 µM and more than 10 µM, respectively.

Consider `CC(c1ccc(F)cc1C(F)(F)F)N1C[C@H](C)N(c2cc(=O)n(C)c3cn(CC#N)nc23)C[C@H]1C` (single isomer, unassigned) [Compound A236b], for which the IC50 in test [1] was determined as 0.178 µM; in test [2], 77.4 µM.

Consider `CC[C@H]1CN(C(C)c2ccc(C(F)F)cn2)[C@H](CC)CN1c1cc(=O)n(C)c2cn(CC#N)nc12` (single isomer, unassigned) [Compound A347a], for which the values for the IC50 in test [1] and in test [2] were 4.8 µM and 0.173 µM, respectively.

Take `CC(c1ccc2ncnn2c1)N1C[C@H](C)N(c2cc(=O)n(C)c3cn(CC#N)nc23)C[C@H]1C` (stereo partly shown) [Compound A34]: the values for the IC50 in test [1] and in test [2] were 5.8 µM and 8.3 µM, respectively.

With `CC[C@H]1CN(C(C)c2nn(CC)cc2C#N)[C@H](CC)CN1c1cc(=O)n(C)c2cn(CC#N)nc12` (stereo partly drawn) [Compound A240, 3-(1-((2R,5S)-4-(2-(cyanomethyl)-4-methyl-5-oxo-4,5-dihydro-2H-pyrazolo[4,3-b]pyridin-7-yl)-2,5-diethylpiperazin-1-yl)ethyl)-1-ethyl-1H-pyrazole-4-carbonitrile], the IC50 was 2.01 µM in test [1] and 0.948 µM in test [2].

For the compound `C#CCn1cc2c(n1)c(N1C[C@@H](C)N(C(C)c3ccc4nccnc4c3)C[C@@H]1C)cc(=O)n2C` (stereo partly shown) [Compound A21], the IC50 in test [1] was 0.31 µM; in test [2], 5.3 µM.

Consider `CC#CCn1cc2c(n1)c(N1C[C@@H](C)N([C@H](C)c3ccc4nccnc4c3)C[C@@H]1C)cc(=O)n2C` [Compound A22a, 2-(but-2-yn-1-yl)-7-((2S,5R)-2,5-dimethyl-4-((R)-1-(quinoxalin-6-yl)ethyl)piperazin-1-yl)-4-methyl-2,4-dihydro-5H-pyrazolo[4,3-b]pyridin-5-one], for which the IC50 in test [1] was determined as 13 µM; in test [2], 1.1 µM.

On to `CC[C@H]1CN(C(C)c2ccncc2OC)[C@H](CC)CN1c1cc(=O)n(C)c2cn(CC#N)nc12` (stereo partly shown) [Compound A91], for which the values for the IC50 in test [1] and in test [2] were 0.533 µM and more than 10 µM, respectively.

With `CC#CCn1cc2c(n1)c(N1C[C@@H](C)N([C@@H](C)c3ccc4ncc(C)nc4c3)C[C@@H]1C)cc(=O)n2C` [Compound A336], the IC50 in test [1] came out at 0.06 µM; in test [2], 1.57 µM.

In the case of `CC[C@H]1CN(C(C)c2nc3cccnc3n2CC)[C@H](CC)CN1c1cc(=O)n(C)c2cn(CC#N)nc12` (single isomer, unassigned) [Compound A185b], the IC50 was found to be 0.034 µM in test [1] and 3.99 µM in test [2].

Consider `COc1cc(F)c(C(C)N2C[C@H](C)N(c3cc(=O)n(C)c4cn(CC#N)nc34)C[C@H]2C)cc1F` (stereo partly shown) [Compound A35], for which the 50% inhibitory concentration (IC50) was found to be 1.2 µM in test [1] and 0.87 µM in test [2].

As to `CC(c1ccc2nccnc2c1)N1C[C@H](C)N(c2cc(=O)n(C)c3cn(CC4CC4)nc23)C[C@H]1C` (stereo partly shown) [Compound A10], the concentration for half-maximal inhibition (IC50) in test [1] was found to be 18 µM; in test [2], 110 µM.

`CC[C@H]1CN(C(C)c2ccc(C)cc2)[C@H](CC)CN1c1cc(=O)n(C)c2cn(CC#N)nc12` (single isomer, unassigned) [Compound A127a]: the values for the IC50 in test [1] and in test [2] were 0.084 µM and 0.037 µM, respectively.

Take `CC[C@H]1CN(C(C)c2cccn(C)c2=O)[C@H](CC)CN1c1cc(=O)n(C)c2cn(CC#N)nc12` (stereo partly shown) [Compound A104]: the IC50 in test [1] and in test [2] was more than 10 µM in each case.

For `CC[C@H]1CN(C(C)c2ccc(F)cc2OCCOC)[C@H](CC)CN1c1cc(=O)n(C)c2cn(CC#N)nc12` (stereo partly shown) [Compound A85], the results for the IC50 in test [1] and in test [2] were 1.18 µM and 5.28 µM, respectively.

Regarding `C[C@@H]1CN(c2cc(=O)n(C)c3cn(CC#N)nc23)[C@@H](C)CN1C(C)(C)c1ccc(F)cc1` [Compound A297, 2-(7-((2S,5R)-4-(2-(4-fluorophenyl)propan-2-yl)-2,5-dimethylpiperazin-1-yl)-4-methyl-5-oxo-4,5-dihydro-2H-pyrazolo[4,3-b]pyridin-2-yl)acetonitrile], the IC50 in test [1] is more than 10 µM; in test [2], 8.18 µM.

For `CC[C@H]1CN(C(C)c2ncc(Cl)n2CC)[C@H](CC)CN1c1cc(=O)n(C)c2cn(CC#N)nc12` (single isomer, unassigned) [Compound A187b], the IC50 came to 0.199 µM in test [1] and 6.32 µM in test [2].

On to `CC(c1ccc2nc(O)cnc2c1)N1C[C@H](C)N(c2cc(=O)n(C)c3cn(CC#N)nc23)C[C@H]1C` (stereo partly drawn) [Compound A284, 2-(7-((2S,5R)-4-(1-(2-hydroxyquinoxalin-6-yl)ethyl)-2,5-dimethylpiperazin-1-yl)-4-methyl-5-oxo-4,5-dihydro-2H-pyrazolo[4,3-b]pyridin-2-yl)acetonitrile], for which the IC50 in test [1] is more than 10 µM; in test [2], 6.48 µM.

Take `CCc1cnc2ccc(C(C)N3C[C@H](C)N(c4cc(=O)n(C)c5cn(CC#N)nc45)C[C@H]3C)cc2n1` (stereo partly drawn) [Compound A278, 2-(7-((2S,5R)-4-(1-(3-ethylquinoxalin-6-yl)ethyl)-2,5-dimethylpiperazin-1-yl)-4-methyl-5-oxo-4,5-dihydro-2H-pyrazolo[4,3-b]pyridin-2-yl)acetonitrile]: the figures for the IC50 in test [1] and in test [2] were 0.064 µM and 55.1 µM, respectively.

Regarding `CC[C@@H]1CN(c2cc(=O)n(C)c3cn(CC#N)nc23)[C@@H](CC)CN1C(=O)c1ccc(C)cn1` [Compound A370], the IC50 is more than 10 µM in test [1] and 0.363 µM in test [2].

Take `CC[C@H]1CN(C(C)c2ccc(F)cc2C#N)[C@H](CC)CN1c1cc(=O)n(C)c2cn(CC#N)nc12` (single isomer, unassigned) [Compound A224b]: the results for the IC50 in test [1] and in test [2] were 4.94 µM and 4.15 µM, respectively.

With `CC[C@H]1CN(C(C)c2ccc3nccnc3c2)[C@H](CC)CN1c1cc(=O)n(CC2CC2)c2cn(CC#N)nc12` (stereo partly shown) [Compound A167], the IC50 is 1.02 µM in test [1] and more than 10 µM in test [2].

On to `CC(c1ccc2ncc(O)nc2c1)N1C[C@H](C)N(c2cc(=O)n(C)c3cn(CC#N)nc23)C[C@H]1C` (stereo partly drawn) [Compound A279, 2-(7-((2S,5R)-4-(1-(3-hydroxyquinoxalin-6-yl)ethyl)-2,5-dimethylpiperazin-1-yl)-4-methyl-5-oxo-4,5-dihydro-2H-pyrazolo[4,3-b]pyridin-2-yl)acetonitrile], for which the IC50 in test [1] and in test [2] was more than 10 µM in each case.

What is called IC50 is the concentration that gives 50% inhibition.
